The text below walks through data of patent US6521265B1, “Method for applying a blood clotting agent” (Biolife, L.L.C., priority 2000, dated 2003).

In the assay the test system is blood flowing from an open wound. Nature of the assay: Potassium ferrate used on blood flowing from an open wound. Particulars: in vivo. The text has this: The apparent chemical ferrate reaction with water found in blood is as follows:
As provided by the above compounds, a method of arresting blood and body fluid flow from an open skin wound is provided. An effective amount of any of the above salt ferrates, and preferably potassium ferrate in powder form, is applied directly onto the wound to interact with flowing blood or body fluid to accelerate its clotting.

Regarding potassium ferrate, the “clotting of blood flowing from an open wound” value was “effectively accomplishes the accelerated clotting of blood”.
